The results in this text go back to ChEMBL document CHEMBL1152755, “Synthesis and cytotoxic properties of 4,11-bis[(aminoethyl)amino]anthra[2,3-b]thiophene-5,10-diones, novel analogues of antitumor anthracene-9,10-diones” (2009).

Calls of active or inactive are those of the source. The calls are words filed in the database; no cut-off is given here.

One assay concerns K562. Nature of the assay: Resistance index, ratio IC50 for human K562 cells to IC50 for P-gp positive human K562 cells. It counts as functional.
A further assay has as its system HCT-116. The assay can be described thus: Resistance index, ratio IC50 for HCT116 cells to IC50 for p53 deleted human HCT116 cells. Type of assay: functional.
For assay [1], the target named is T1, DNA topoisomerase 1 (Homo sapiens) (UniProt P11387).
T1 sequence (whole entry): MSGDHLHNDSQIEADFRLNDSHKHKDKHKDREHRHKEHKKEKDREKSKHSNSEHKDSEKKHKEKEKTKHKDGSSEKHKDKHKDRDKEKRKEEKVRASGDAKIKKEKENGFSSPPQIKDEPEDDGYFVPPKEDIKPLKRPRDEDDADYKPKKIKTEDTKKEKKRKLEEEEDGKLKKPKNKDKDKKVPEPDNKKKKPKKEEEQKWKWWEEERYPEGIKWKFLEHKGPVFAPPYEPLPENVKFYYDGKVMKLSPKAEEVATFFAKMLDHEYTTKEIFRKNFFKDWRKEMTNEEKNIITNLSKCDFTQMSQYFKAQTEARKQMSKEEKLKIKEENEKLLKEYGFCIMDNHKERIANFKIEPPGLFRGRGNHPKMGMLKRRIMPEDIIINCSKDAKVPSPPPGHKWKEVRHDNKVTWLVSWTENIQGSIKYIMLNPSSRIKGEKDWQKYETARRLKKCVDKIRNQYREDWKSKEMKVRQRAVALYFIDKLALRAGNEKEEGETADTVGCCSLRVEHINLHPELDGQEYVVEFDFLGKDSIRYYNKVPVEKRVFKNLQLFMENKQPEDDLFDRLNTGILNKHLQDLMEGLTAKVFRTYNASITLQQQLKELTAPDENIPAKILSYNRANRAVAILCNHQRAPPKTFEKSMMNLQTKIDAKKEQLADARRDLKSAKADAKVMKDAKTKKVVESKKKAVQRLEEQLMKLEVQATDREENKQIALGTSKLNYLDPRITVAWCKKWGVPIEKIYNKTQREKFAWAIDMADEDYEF
Nature of the assay: Inhibition of topoisomerase 1-mediate pHot DNA relaxation measured by electrophoretic mobility.

Assay [2] has as its target Telomerase reverse transcriptase (Homo sapiens) (UniProt O14746). Nature of the assay: Inhibition of telomerase at 1 uM by TRAP assay.

Telomerase reverse transcriptase (Homo sapiens), sequence (O14746 whole entry): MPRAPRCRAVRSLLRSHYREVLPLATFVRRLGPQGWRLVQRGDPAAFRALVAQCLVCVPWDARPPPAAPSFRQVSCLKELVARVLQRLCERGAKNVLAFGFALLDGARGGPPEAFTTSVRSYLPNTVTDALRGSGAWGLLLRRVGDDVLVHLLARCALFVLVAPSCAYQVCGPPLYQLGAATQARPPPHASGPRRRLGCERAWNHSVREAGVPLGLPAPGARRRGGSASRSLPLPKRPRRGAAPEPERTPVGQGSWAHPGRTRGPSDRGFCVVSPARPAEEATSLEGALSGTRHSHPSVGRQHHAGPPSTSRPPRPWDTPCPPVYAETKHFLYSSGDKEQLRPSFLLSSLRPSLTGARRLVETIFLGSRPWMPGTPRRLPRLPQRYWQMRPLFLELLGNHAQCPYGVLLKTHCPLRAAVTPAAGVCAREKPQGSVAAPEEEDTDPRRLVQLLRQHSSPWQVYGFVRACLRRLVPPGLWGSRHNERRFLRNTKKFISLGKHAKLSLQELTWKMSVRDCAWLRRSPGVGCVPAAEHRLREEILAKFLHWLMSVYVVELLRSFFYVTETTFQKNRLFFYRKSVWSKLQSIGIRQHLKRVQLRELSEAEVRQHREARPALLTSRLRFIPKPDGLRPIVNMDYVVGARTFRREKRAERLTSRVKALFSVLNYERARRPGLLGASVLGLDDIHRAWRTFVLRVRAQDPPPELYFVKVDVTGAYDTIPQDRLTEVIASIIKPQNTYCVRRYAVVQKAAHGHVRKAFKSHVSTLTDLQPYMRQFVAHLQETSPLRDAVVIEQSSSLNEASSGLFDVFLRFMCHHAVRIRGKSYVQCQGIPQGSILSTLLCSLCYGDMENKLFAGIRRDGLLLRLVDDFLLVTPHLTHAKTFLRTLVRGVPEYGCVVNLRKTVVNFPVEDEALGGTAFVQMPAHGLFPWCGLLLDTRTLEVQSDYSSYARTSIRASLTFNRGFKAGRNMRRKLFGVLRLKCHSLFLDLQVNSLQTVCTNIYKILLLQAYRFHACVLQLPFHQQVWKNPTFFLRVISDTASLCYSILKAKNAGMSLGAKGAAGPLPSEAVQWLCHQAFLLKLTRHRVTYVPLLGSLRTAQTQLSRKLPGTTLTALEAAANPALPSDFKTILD

On to `Cc1csc2c(NCCN(C)C)c3c(c(NCCN(C)C)c12)C(=O)c1ccccc1C3=O`, for which the “Ratio IC50” value in the assay on K562 stood at 1.8; with HCT-116, 8.4.
In the case of `CNCCNc1c2c(c(NCCNC)c3sccc13)C(=O)c1ccccc1C2=O`, the figures for the “Ratio IC50” value in the assay on K562 and in the assay on HCT-116 were 1.4 and 0.6, respectively. In addition, the outcome in assay [1] and in assay [2] was Active.
As for `CNCCNc1c2c(c(NCCNC)c3c(C)csc13)C(=O)c1ccccc1C2=O`, the “Ratio IC50” value was 2 in the assay on K562 and 2.7 in the assay on HCT-116.
With `CNCCNc1c2c(c(NCCNC)c3sc(C(=O)NC)cc13)C(=O)c1ccccc1C2=O`, the “Ratio IC50” value in the assay with K562 is recorded as greater than 11.
The same measure, in the same setting: to `COc1cccc2c1C(=O)c1c(O)c3c(c(O)c1C2=O)C[C@@](O)(C(=O)CO)C[C@@H]3O[C@H]1C[C@H](N)[C@H](O)[C@H](C)O1` [DOXORUBICIN] belongs 51.
For the compound `N=C(N)NCCNc1c2c(c(NCCNC(=N)N)c3sccc13)C(=O)c1ccccc1C2=O`, the “Ratio IC50” value is recorded as 3.4 with K562 and greater than 25 in the assay on HCT-116. Moreover, the result in assay [2] was Active.
In the case of `CN(C)CCNc1c2c(c(NCCN(C)C)c3sc(C(=O)NCCO)cc13)C(=O)c1ccccc1C2=O`, the “Ratio IC50” value in the assay with K562 is on record as greater than 6.
With `CNC(=O)c1cc2c(NCCN(C)C)c3c(c(NCCN(C)C)c2s1)C(=O)c1ccccc1C3=O`, the “Ratio IC50” value stood at 1.1 in the assay on K562 and 4.2 with HCT-116.
On to `CNCCNc1c2c(c(NCCNC)c3[nH]ccc13)C(=O)c1ccccc1C2=O`, for which the figures for the “Ratio IC50” value in the assay with K562 and with HCT-116 were 3.1 and 1, respectively.
On the same counts, the results for `Cc1csc2c(NCCN)c3c(c(NCCN)c12)C(=O)c1ccccc1C3=O` are 5 and greater than 83.
On the same counts, the results for `CN(C)CCNc1c2c(c(NCCN(C)C)c3sc(C(=O)NN)cc13)C(=O)c1ccccc1C2=O` are greater than 90 and greater than 25.
Taken in the same sequence, the figures for `CN(C)CCNc1c2c(c(NCCN(C)C)c3sccc13)C(=O)c1ccccc1C2=O` were 2.3 and 0.6.
Take `CC(=O)OCCNCCNc1c2c(c(NCCNCCOC(C)=O)c3sccc13)C(=O)c1ccccc1C2=O`: in the assay on K562, the “Ratio IC50” value was greater than 18.
With `CN(CCNc1c2c(c(NCCN(C)C(=N)N)c3sccc13)C(=O)c1ccccc1C2=O)C(=N)N`, in assay [2], the outcome was Active. Besides, the “Ratio IC50” value with HCT-116 is on record as greater than 24.
On to `O=C1c2ccccc2C(=O)c2c1c(NCCNCCO)c1ccsc1c2NCCNCCO`, for which, in the assay on K562, the “Ratio IC50” value is on record as greater than 12.
